Experiments:
Assay type in all cases: cell-based
human TLR7 = molecular target: T1, human TLR7 (Homo sapiens, UniProt Q9NYK1); assay: TLR7 inhibition reporter assay (HEK-Blue cells, SEAP reporter, gardiquimod stimulation); conditions: HEK-Blue cells overexpressing human TLR7, SEAP reporter, gardiquimod 7.5 μM
T1 construct: host or cells: HEK-Blue cells (HEK293-derived reporter line)
T1 sequence (Q9NYK1 27-1049): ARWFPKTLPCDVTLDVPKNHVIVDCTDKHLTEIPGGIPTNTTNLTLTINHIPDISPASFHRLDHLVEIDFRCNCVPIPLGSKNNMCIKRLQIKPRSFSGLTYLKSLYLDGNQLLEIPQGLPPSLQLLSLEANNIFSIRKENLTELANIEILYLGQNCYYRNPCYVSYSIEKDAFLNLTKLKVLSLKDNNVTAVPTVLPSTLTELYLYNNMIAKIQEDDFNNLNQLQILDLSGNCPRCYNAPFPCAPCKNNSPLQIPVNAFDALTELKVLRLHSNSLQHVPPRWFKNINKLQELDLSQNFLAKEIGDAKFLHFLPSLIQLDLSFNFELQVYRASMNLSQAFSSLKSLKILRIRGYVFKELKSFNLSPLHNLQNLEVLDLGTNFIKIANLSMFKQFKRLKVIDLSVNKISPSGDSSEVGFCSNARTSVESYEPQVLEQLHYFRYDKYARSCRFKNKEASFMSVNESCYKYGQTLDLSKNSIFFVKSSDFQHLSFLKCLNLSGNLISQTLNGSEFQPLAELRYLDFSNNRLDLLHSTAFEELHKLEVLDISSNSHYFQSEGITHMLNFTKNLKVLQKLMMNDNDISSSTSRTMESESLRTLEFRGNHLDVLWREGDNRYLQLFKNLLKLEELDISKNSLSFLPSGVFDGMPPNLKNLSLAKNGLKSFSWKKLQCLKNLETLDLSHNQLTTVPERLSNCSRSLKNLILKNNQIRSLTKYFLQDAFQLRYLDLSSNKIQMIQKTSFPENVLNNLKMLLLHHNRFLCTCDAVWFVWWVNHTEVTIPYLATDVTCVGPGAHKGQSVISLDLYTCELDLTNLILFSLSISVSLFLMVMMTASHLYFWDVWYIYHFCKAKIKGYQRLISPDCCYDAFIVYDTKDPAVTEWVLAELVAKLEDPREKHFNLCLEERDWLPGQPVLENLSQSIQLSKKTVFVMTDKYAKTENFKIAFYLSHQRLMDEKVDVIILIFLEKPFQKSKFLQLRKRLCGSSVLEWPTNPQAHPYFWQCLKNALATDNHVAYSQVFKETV
Outline: (§1)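 Agonists (final): TLR7 gardiquimod 7.5 μM; TLR8 R848 15.9 μM; TLR9 ODN2006 5 nM. HEK-Blue reporter cells, 30 min RT compound pre-incubation, 0.05 nM–50 μM dose range, 22 h at 37 °C, colorimetric SEAP detection medium. % inhibition relative to agonist+DMSO and known-inhibitor wells.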

human TLR8 = molecular target: T2, human TLR8 (Homo sapiens, UniProt Q9NR97); assay: TLR8 inhibition reporter assay (HEK-Blue cells, SEAP reporter, R848 stimulation); conditions: HEK-Blue cells overexpressing human TLR8, SEAP reporter, R848 15.9 μM
T2 construct: host or cells: HEK-Blue cells (HEK293-derived reporter line)
T2 sequence (Q9NR97 27-1041): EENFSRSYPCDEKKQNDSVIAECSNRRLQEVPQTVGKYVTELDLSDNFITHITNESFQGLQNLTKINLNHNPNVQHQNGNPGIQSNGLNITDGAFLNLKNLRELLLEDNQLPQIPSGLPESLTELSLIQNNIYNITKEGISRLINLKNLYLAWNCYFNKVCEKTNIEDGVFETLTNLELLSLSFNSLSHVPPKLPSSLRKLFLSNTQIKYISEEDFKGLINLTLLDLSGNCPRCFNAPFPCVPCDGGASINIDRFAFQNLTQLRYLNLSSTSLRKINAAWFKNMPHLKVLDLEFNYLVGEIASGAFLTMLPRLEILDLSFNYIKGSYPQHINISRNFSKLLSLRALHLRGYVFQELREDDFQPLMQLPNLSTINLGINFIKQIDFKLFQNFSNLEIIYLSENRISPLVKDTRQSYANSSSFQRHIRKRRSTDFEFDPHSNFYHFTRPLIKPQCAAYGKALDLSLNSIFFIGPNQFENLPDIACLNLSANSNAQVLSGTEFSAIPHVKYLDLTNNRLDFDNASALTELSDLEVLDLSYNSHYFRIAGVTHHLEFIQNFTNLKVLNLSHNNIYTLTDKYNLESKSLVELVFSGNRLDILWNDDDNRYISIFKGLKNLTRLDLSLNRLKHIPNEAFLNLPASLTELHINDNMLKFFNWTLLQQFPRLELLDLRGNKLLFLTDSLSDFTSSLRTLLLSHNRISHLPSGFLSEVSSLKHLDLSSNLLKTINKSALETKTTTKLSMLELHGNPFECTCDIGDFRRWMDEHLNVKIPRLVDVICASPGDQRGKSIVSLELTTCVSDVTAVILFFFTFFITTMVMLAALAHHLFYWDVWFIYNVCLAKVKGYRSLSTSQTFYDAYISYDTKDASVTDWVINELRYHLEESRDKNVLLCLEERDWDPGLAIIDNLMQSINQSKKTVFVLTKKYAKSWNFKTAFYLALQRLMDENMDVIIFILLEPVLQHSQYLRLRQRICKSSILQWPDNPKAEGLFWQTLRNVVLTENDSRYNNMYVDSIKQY
Outline: as §1

human TLR9 = molecular target: T3, human TLR9 (Homo sapiens, UniProt Q9NR96); assay: TLR9 inhibition reporter assay (HEK-Blue cells, SEAP reporter, ODN2006 stimulation); conditions: HEK-Blue cells overexpressing human TLR9, SEAP reporter, ODN2006 5 nM
T3 construct: host or cells: HEK-Blue cells (HEK293-derived reporter line)
T3 sequence (Q9NR96 26-1032): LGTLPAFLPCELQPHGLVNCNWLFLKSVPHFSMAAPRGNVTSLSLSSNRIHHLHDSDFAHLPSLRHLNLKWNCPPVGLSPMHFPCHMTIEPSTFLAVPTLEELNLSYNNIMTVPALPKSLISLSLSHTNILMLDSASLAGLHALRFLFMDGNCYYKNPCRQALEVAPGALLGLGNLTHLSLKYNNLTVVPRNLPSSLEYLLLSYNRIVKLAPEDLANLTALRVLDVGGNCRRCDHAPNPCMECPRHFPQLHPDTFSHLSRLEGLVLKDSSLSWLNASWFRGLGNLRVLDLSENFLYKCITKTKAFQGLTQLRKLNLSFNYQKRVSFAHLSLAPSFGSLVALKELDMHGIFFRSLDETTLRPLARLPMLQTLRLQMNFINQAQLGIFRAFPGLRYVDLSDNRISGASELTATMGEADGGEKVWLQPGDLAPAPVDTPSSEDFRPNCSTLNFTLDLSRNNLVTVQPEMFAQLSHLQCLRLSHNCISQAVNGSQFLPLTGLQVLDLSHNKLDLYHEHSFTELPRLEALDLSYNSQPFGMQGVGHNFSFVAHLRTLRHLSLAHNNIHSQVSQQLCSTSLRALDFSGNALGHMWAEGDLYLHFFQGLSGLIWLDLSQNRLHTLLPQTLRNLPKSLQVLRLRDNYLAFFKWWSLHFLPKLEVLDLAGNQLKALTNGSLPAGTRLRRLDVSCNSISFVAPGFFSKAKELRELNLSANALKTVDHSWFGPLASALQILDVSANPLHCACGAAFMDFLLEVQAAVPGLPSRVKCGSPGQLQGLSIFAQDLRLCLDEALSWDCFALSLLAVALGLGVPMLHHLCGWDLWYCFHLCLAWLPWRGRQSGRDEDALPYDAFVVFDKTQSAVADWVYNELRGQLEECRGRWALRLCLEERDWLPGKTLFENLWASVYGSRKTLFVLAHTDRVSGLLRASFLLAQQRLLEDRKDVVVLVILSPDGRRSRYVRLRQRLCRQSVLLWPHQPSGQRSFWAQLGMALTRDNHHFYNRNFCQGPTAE
Outline: as §1

CNC(=O)CN1CCC(c2ccc3[nH]c(-c4cc(C)c5oc(=O)n(C)c5c4)c(C(C)C)c3c2)CC1 [Example 336, 2-(4-(2-(3,7-dimethyl-2-oxo-2,3-dihydrobenzo[d]oxazol-5-yl)-3-isopropyl-1H-indol-5-yl)piperidin-1-yl)-N-methylacetamide]
IC50 (human TLR7): < 100 nM
IC50 (human TLR8): 100 to 1000 nM
IC50 (human TLR9): 1000 to 50000 nM

CNC(=O)CN1CCC(c2ccc3[nH]c(-c4cc(C)nc5ccccc45)c(C(C)C)c3c2)CC1 [Example 328, 2-(4-(3-isopropyl-2-(2-methylquinolin-4-yl)-1H-indol-5-yl)piperidin-1-yl)-N-methylacetamide]
IC50 (human TLR7): < 100 nM
IC50 (human TLR8): < 100 nM
IC50 (human TLR9): 1000 to 50000 nM

CCc1c(-c2ccnc3[nH]ncc23)[nH]c2ccc(C3CCNCC3F)cc12 (stereo not drawn) [Example 173, 4-(3-ethyl-5-(3-fluoropiperidin-4-yl)-1H-indol-2-yl)-1H-pyrazolo[3,4-b]pyridine]
IC50 (human TLR7): 100 to 1000 nM
IC50 (human TLR8): < 100 nM
IC50 (human TLR9): 1000 to 50000 nM

Cc1cc(-c2[nH]c3ccc(C4CCN(C5COC5)CC4)cc3c2C(C)C)cc2cnnn12 [Example 744, 5-(3-isopropyl-5-(1-(oxetan-3-yl)piperidin-4-yl)-1H-indol-2-yl)-7-methyl-[1,2,3]triazolo[1,5-a]pyridine]
IC50 (human TLR7): < 100 nM
IC50 (human TLR8): < 100 nM
IC50 (human TLR9): 1000 to 50000 nM

Cc1c(-c2ncnc3[nH]ncc23)[nH]c2ccc(C3CCN(C4CCN(C(C)C)CC4)CC3)cc12 [Example 816, 4-(5-(1′-isopropyl-[1,4′-bipiperidin]-4-yl)-3-methyl-1H-indol-2-yl)-1H-pyrazolo[3,4-d]pyrimidine]
IC50 (human TLR7): 100 to 1000 nM
IC50 (human TLR8): < 100 nM
IC50 (human TLR9): < 100 nM

CNCC(=O)N1CCC(c2ccc3[nH]c(-c4cnc5ccnn5c4)c(C(C)C)c3c2)CC1 [Example 503, 1-(4-(3-isopropyl-2-(pyrazolo[1,5-a]pyrimidin-6-yl)-1H-indol-5-yl)piperidin-1-yl)-2-(methylamino)ethan-1-one]
IC50 (human TLR7): 100 to 1000 nM
IC50 (human TLR8): > 3130 nM
IC50 (human TLR9): 100 to 1000 nM

CCN(CC)CCN1CCC(c2ccc3[nH]c(-c4ccnc5[nH]ncc45)c(C(C)C)c3c2)CC1 [Example 661, N,N-diethyl-2-(4-(3-isopropyl-2-(1H-pyrazolo[3,4-b]pyridin-4-yl)-1H-indol-5-yl)piperidin-1-yl)ethan-1-amine]
IC50 (human TLR7): < 100 nM
IC50 (human TLR8): < 100 nM
IC50 (human TLR9): 100 to 1000 nM

Cc1nnn2ccc(-c3[nH]c4ccc(C5CCN(CCS(C)(=O)=O)CC5)cc4c3C(C)C)cc12 [Example 793, 5-(3-isopropyl-5-(1-(2-(methylsulfonyl)ethyl)piperidin-4-yl)-1H-indol-2-yl)-3-methyl-[1,2,3]triazolo[1,5-a]pyridine]
IC50 (human TLR7): < 100 nM
IC50 (human TLR8): < 100 nM
IC50 (human TLR9): 1000 to 50000 nM

Cc1cc(-c2[nH]c3ccc(C4CCN(CCC(F)(F)F)CC4)cc3c2C(C)C)cn2nnnc12 [Example 962, 6-(3-isopropyl-5-(1-(3,3,3-trifluoropropyl)piperidin-4-yl)-1H-indol-2-yl)-8-methyltetrazolo[1,5-a]pyridine]
IC50 (human TLR7): < 100 nM
IC50 (human TLR8): < 100 nM
IC50 (human TLR9): > 50000 nM

Cc1c(-c2[nH]c3ccc(C4CCN(CC(C)(C)O)CC4)cc3c2C(C)C)cn2ccnc2c1Cl [Example 772, 1-(4-(2-(8-chloro-7-methylimidazo[1,2-a]pyridin-6-yl)-3-isopropyl-1H-indol-5-yl)piperidin-1-yl)-2-methylpropan-2-ol]
IC50 (human TLR7): < 100 nM
IC50 (human TLR8): < 100 nM
IC50 (human TLR9): 1000 to 50000 nM

CC(C)c1c(-c2cn(C)c3ncccc23)[nH]c2ccc(C3CCN(Cc4cnn[nH]4)CC3)cc12 [Example 877, 3-(5-(1-((1H-1,2,3-triazol-5-yl)methyl)piperidin-4-yl)-3-isopropyl-1H-indol-2-yl)-1-methyl-1H-pyrrolo[2,3-b]pyridine]
IC50 (human TLR7): < 100 nM
IC50 (human TLR8): < 100 nM
IC50 (human TLR9): 1000 to 50000 nM

Cc1cc2ncnn2nc1-c1[nH]c2ccc(C3CCN(C4CCOCC4)CC3)cc2c1C(C)C [Example 687, 6-(3-isopropyl-5-(1-(tetrahydro-2H-pyran-4-yl)piperidin-4-yl)-1H-indol-2-yl)-7-methyl-[1,2,4]triazolo[1,5-b]pyridazine]
IC50 (human TLR7): < 100 nM
IC50 (human TLR8): < 100 nM
IC50 (human TLR9): 1000 to 50000 nM

CC(C)c1c(-c2cn(C)c3ncccc23)[nH]c2ccc(C3CCN(C4COC4)CC3)cc12 [Example 733, 3-(3-isopropyl-5-(1-(oxetan-3-yl)piperidin-4-yl)-1H-indol-2-yl)-1-methyl-1H-pyrrolo[2,3-b]pyridine]
IC50 (human TLR7): < 100 nM
IC50 (human TLR8): < 100 nM
IC50 (human TLR9): 1000 to 50000 nM

FC(F)Cc1c(-c2ccc3nccn3c2)[nH]c2ccc(C3CCN(Cc4c[nH]cn4)CC3)cc12 [Example 941, 6-(5-(1-((1H-imidazol-4-yl)methyl)piperidin-4-yl)-3-(2,2-difluoroethyl)-1H-indol-2-yl)imidazo[1,2-a]pyridine]
IC50 (human TLR7): 100 to 1000 nM
IC50 (human TLR8): 100 to 1000 nM
IC50 (human TLR9): 100 to 1000 nM

Reference: US11739098B2 (BRISTOL-MYERS SQUIBB COMPANY, priority 2017, dated 2023)
